System: Sprague Dawley rats, 6-OHDA lesion
Test: Microglia morphology in substantia nigra, IBA1 skeleton analysis (study 2)
Type: in vivo, rat
Settings: more severe (40%) lesion, treatment vs vehicle, n = 7
Procedure: Rats were treated with 2LS98Lac or saline (vehicle) as outlined in the Schemes in Figures 9A,B via intraperitoneal (i.p.) injection (15 mg/kg). All animals were made hemi-parkinsonian with unilateral, striatal 6-hydroxydopamine (Sigma Aldrich, St. Louis, MO) injections. After surgery, behavioral assessments were done at 2- and 4-weeks post-surgery. 24 h after the last test animals were either euthanized and whole brains were harvested for future biochemical analysis or perfused and brains collected for immunohistochemistry and stereological assessment of tyrosine hydroxylase-positive (TH+) cells remaining in the SNc. In study 1: n = 16 each group were included, and all underwent the behavioral analysis: n = 16, and for the stereology in the SNc, n = 8 each group was used. In study 2: n = 23 each group were included. […] In the 2LS98Lac group, one video at 4 weeks was lost, reducing n = 22 in this specific analysis, and for the stereology, 2 brains were damaged during processing and could not be included in the stereology of the SNc, therefore […]. For biochemical subanalyses, n = 8 each group. For the microglial morphology subanalysis n = 7 each group.
Three coronal brain sections that contained the substantia nigra (SN) were randomly chosen for each animal. For immunofluorescence of microglia free-floating brain sections were first blocked in 10% horse serum (Vector Laboratories, S-2000–20, Burlingame, CA) and buffer solution (0.01 M PBS, 0.05% Triton, and 0.04% NaN3) for 1 h followed by a 72 h incubation with primary antibodies as appropriate: rabbit anti-IBA1 at 1:1,000 (Wako, 019–19741, Madison, WI), mouse anti-TH at 1:2000 (R& D Systems, MAB7566, Minneapolis, MN). […] All incubation steps were performed at room temperature; washes between incubations were with 0.01 M PBS for 15 min. Vectashield (Vector Laboratories, H-1000) was used to coverslip mounted tissue.
Images were acquired on a confocal microscope (Zeiss NLO 880, San Diego, CA) in 3 fields of view within the SN of each intact and lesioned hemisphere using a ×40 objective (473.33 × 473.33 μm area). […] Threshold parameters were consistent for all images, and the percent area of IBA1 immunofluorescence was measured for each image. The number of cell somas was counted in the IBA1 channel, an approximation of the number of cells imaged in each frame, and all percent area data was divided by this cell count.
Ramified microglial morphology was quantified using an objective and computer-aided skeleton analysis method previously described in detail ([Young and Morrison, 2018]). […] Sampling averages were calculated for each animal within each region (intact SN and lesion SN) prior to statistical analyses. […]

[2H]C([2H])([2H])C([2H])(C([2H])([2H])[2H])[C@]([2H])(NC(=O)[C@H](C)NC(=O)[C@H](C)NC(=O)[C@H](CC(C)C)NC(=O)[C@H](Cc1ccc(O)cc1)NC(=O)[C@H](CCCCN)NC(=O)[C@H](CCCCN)NC(=O)[C@@]([2H])(NC(=O)[C@H](C)NC(=O)[C@H](CC(C)C)NC(=O)[C@H](CCC(N)=O)NC(=O)[C@H](CCCCN)NC(=O)[C@H](CCCNC(=N)N)NC(=O)[C@H](Cc1ccc(O)cc1)NC(=O)[C@H](CCCNC(=N)N)NC(=O)[C@H](CO)NC(=O)[C@H](Cc1ccc(O)cc1)NC(=O)[C@H](CO)NC(=O)[C@H](CC(=O)O)NC(=O)[C@@H](NC(=O)[C@H](Cc1ccccc1)NC(=O)[C@@H](NC(=O)CNC(=O)[C@H](CC(=O)O)NC(=O)[C@H](CO)NC(=O)[C@@H](N)Cc1c[nH]cn1)[C@@H](C)CC)[C@@H](C)O)C([2H])(C([2H])([2H])[2H])C([2H])([2H])[2H])C(=O)N[C@@H](CC(C)C)C(=O)N[C@@H](CO[C@@H]1O[C@H](CO)[C@@H](O[C@@H]2O[C@H](CO)[C@H](O)[C@H](O)[C@H]2O)[C@H](O)[C@H]1O)C(N)=O [Compound 2LS98Lac]
% area IBA-1/cell on the lesioned side: significant increase | Microglial branches/cell on the lesioned side: significant increase | Microglial endpoints/cell on the lesioned side: trend toward increase | Microglial process length/cell on the lesioned side: significant increase

— publication PMC8887546, “Design and Synthesis of Brain Penetrant Glycopeptide Analogues of PACAP With Neuroprotective Potential for Traumatic Brain Injury and Parkinsonism” (Frontiers in drug discovery, 2022)
